Data as given in patent US8889894B2, “Compounds for use in therapy” (Bangor University, priority 2008, dated 2014).

Assays:
alveolar macrophages = assay: Foaming of mycolic acid treated alveolar macrophages (ORO-stained lung sections); format: in vivo, C57BL/6 mice; details: single intratracheal dose of liposomes carrying compound, a week earlier; compared with empty liposomes or liposomes containing compound 1; FIG. 2
Procedure: (§1) Briefly, the compounds were mixed with phosphatidylcholine (Sigma) in chloroform. The chloroform was evaporated and the lipids recovered in sterile saline. After ultrasound sonication and vortexing, samples of 25 μg mycolic acids/100 μl/mouse were administered intratracheally. A liposome control was prepared similarly, but without the addition of any mycolic acid compound.
Formation of cholesterol-rich foamy alveolar macrophages upon intratracheal instillation of mycolic acid containing liposomes is indicative of a possible mycolic acid induced suppression of Th2-mediated eosinophilia. In a mouse model of allergic asthma this is mediated by a mechanism involving antigen presentation by these foam cells and the activity of regulatory T-lymphocytes (Korf et al, Am. J. Respir. Crit. Care Med., 174, 1-9, 2006).
We verified the induction of cholesterol-loaded cells in the lungs of C57BL/6 mice that received a single dose of liposomes carrying compounds a week earlier. The mice were treated with empty liposomes, liposomes containing control compound 1, liposomes containing compound 2 and liposomes containing compound 4. Frozen lung sections were stained with the lipophilic Oil Red O dye (ORO) thereby visualising foam cell intracellular lipid vesicles and counterstained with haematoxylin. […]

C547BL/6 mice [1] = assay: Inflammatory cell infiltration to the airways (BAL, flowcytometry); format: in vivo; details: 48 hours after intratracheal liposomes; BAL-fluid; compared to empty liposome treatment
Procedure: as §1
In order to be considered safe for therapeutic administration, compounds should preferably cause as little local inflammation or resulting tissue changes as possible.
After 48 hours, mice were sacrificed and a broncho-alveolar lavage (BAL) was performed to measure the airway cell types and numbers by flowcytometry. Increased cell numbers and the appearance of granulocytes (mainly neutrophils) in the BAL-fluid are indicative for cell recruitment to the airways as result of an inflammatory reaction.

C547BL/6 mice [2] = assay: Histo-pathological examination of lung tissue (haematoxylin and eosin, score 0-5); format: in vivo; details: 48 hours after intratracheal liposomes; lavaged lungs, double-blinded pathologist score; FIG. 4
Description: Lavaged lungs were ectomised to allow for histo-pathological examination of the lung tissue. A haematoxylin and eosin staining of the paraffin lung sections was followed by a thorough examination by a skilled pathologist who scored the sections according to the following criteria in a double-blinded manner:
1=a minority of the bronchi are surrounded by some infiltrated inflammatory cells
2=the majority of the bronchi are surrounded by some infiltrated inflammatory cells
3=dispersed are some heavy infiltrates of neutrophils and eosinophils
4=a lot of infiltrating neutrophils and eosinophils throughout the entire lung section
5=same as 4 with additionally signs of airway remodelling e.g. basal membrane thickening, mucus overproduction and/or smooth muscle cell hyperplasia

[3] = system: Th2-driven allergic airway inflammation; assay: Suppression of allergic airway inflammation in a mouse asthma model (OVA/Alum immunised, OVA-aerosol challenge); format: in vivo; details: liposomes intratracheally to OVA/Alum immunised mice, OVA-aerosol challenge after 7 days; flowcytometry (CCR3+); vs empty liposomes; FIG. 5
Procedure: as §1
Liposome containing synthetic mycolic acids compounds 5, 6 and 7 were administered intratracheally to mice which had been immunised for the experimental allergen chicken egg ovalbumin (OVA) adjuvanted with Alum (aluminium hydroxide). Following 7 days, the mice were challenged with OVA-aerosol. Th2-driven allergic airway inflammation was apparent in empty liposomes treated animals, from high eosinophil counts in the BAL-fluid by flowcytometry (CCR3^+).

[4] = system: CD4+ T-helper (Th) lymphocytes; assay: mRNA expression patterns by RT-qPCR of CD4+ T-helper lymphocytes from asthmatic mouse lungs; format: in vivo; details: compounds in liposomes; with reference to empty liposome treatment; FIG. 7
Description: From the previous examples it can be concluded that the synthetic mycolic acids have a significant effect on immune reactivity. The nature of the immune modification appears to be structure dependent. This can be seen from examination of mRNA expression patterns by RT-qPCR of CD4+ T-helper (Th) lymphocytes, isolated from asthmatic mouse lungs after treatment with compounds 6, 8 and 9 formulated into liposomes. The results are shown in FIGS. 7a to e with reference to an empty liposome treatment. All of the synthetic mycolic acid isomers repressed the transcription of the Th2 effector cytokine IL-4 to some degree.

Compound	scores of ORO positive cells/microscopic field (alveolar macrophages)	inflammatory cell infiltration to the airways (C547BL/6 mice [1])	lung tissue changes (C547BL/6 mice [2])	also measured
CCCCCCCCCCCCCCCCCCCCCCCC[C@@H](C(=O)O)[C@H](O)CCCCCCCCCCCCCCC[C@@H]1C[C@@H]1CCCCCCCCCCCCCCCCCCC(=O)[C@@H](C)CCCCCCCCCCCCCCCCCC (single isomer, unassigned) [Example 3]	–	–	–	melting point: 66 to 68 °C
CCCCCCCCCCCCCCCCCCCCCCCC[C@@H](C(=O)O)[C@H](O)CCCCCCCCCCC[C@H]1CC1CCCCCCCCCCCCCC[C@H]1C[C@H]1CCCCCCCCCCCCCCCCCCCC (some centres unmarked) [Compound 2]	significantly higher scores	–	–	–
CCCCCCCCCCCCCCCCCCCC[C@H]1C[C@H]1CCCCCCCCCCCCCCC1C[C@H]1CCCCCCCCCCC[C@@H](O)[C@@H](CC)C(=O)O (some centres unmarked) [Compound 3]	–	do not	did not cause any significant lung tissue changes	–
CCCCCCCCCCCCCCCCCCCCCCCC[C@@H](C(=O)O)[C@H](O)CCCCCCCCCCCCCCCC[C@H]1C[C@@H]1[C@@H](C)CCCCCCCCCCCCCCCCCCC(=O)C(C)CCCCCCCCCCCCCCCCCC (some centres unmarked) [Compound 4]	significantly higher scores	do not	did not cause any significant lung tissue changes	–
CCCCCCCCCCCCCCCCCCCCCCCC[C@@H](C(=O)O)[C@H](O)CCCCCCCCCCCCCCCCC[C@@H]1CC1CCCCCCCCCCCCCCCC[C@@H](OC)[C@@H](C)CCCCCCCCCCCCCCCCCC (some centres unmarked) [Compound 6]	–	–	–	eosinophil count in the BAL-fluid [3]: at least two-fold decreased; FoxP3 (regulatory T-cell) response [4]: especially good in suppressing; Gata-3 transcription (Th2) [4]: especially good in suppressing; IL-4 transcription (Th2 effector cytokine) [4]: especially good in suppressing
